Entries after “also recorded” stand apart in the source; their conditions may differ. Read-outs that look alike come from different tables or passages of the source. Residues, ends and D or L forms follow the SMILES beside them. *: point of attachment. X2 = O=C(C*)Nc1ccc([As](O)O)cc1; X1 = O=C(C*)Nc1ccccc1[As](O)O
Key:
MPTP [1] = molecular target: T1, MPTP (Rattus norvegicus, UniProt Q09073); assay: Mitochondria swelling assay (MPT induction, decrease in light scattering at 520 nm); assay type: biochemical; settings: for blocking of the effect of GSAO on pore opening: 100 μM GSAO with 3 mM Mg^2+, 100 μM EGTA, 10 μM BKA, 5 μM CsA or 8 mM ADP; for swelling of isolated rat liver mitochondria: GSAO 25-200 μM, GSAA, GSCA 100 μM, 60 min
T1 construct: Mitochondria were isolated from the livers of ˜250 g male Wistar rats; from tissue; host or cells: rat liver mitochondria (male Wistar rats)
T1 sequence (Q09073 2-298 limits assumed): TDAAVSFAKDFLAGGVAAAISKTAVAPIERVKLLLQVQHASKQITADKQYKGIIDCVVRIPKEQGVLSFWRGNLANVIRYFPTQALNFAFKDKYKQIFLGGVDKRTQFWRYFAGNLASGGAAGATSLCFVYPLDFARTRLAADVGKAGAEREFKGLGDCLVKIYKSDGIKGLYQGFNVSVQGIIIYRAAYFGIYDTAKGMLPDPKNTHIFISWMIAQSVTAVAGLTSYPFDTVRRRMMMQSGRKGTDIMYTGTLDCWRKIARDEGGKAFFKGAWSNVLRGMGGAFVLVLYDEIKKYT

[2] = molecular target: T2, mitochondrial permeability transition pore (Rattus norvegicus, UniProt Q09073); assay type: biochemical
T2 construct: Mitochondria were isolated from the livers of ˜250 g male Wistar rats; from tissue; host or cells: rat liver mitochondria (male Wistar rats)
T2 sequence (Q09073 2-298 limits assumed): T1 sequence (Q09073 2-298 limits assumed)

MPTP [3] = molecular target: T1, MPTP; assay type: biochemical
BAE cells [4] = system: BAE cells
BAE cells [5] = assay: cells; settings: Bos taurus, read-out: IC50 (μM)*
BAE cells [6] = assay: Cell viability assay, attached cells (methylene blue), proliferating or growth-quiescent cells; assay type: cell-based, bovine
Description: BAE or HMEC-1 cells were seeded at a density of 10^4 cells per cell into 96 well plates and allowed to adhere overnight and then treated as indicated.

BAE cells [7] = assay type: cell-based, bovine
CAM angiogenesis = assay: Chick chorioallantoic membrane (CAM) angiogenesis assay; assay type: in vivo; settings: 5, 10 or 50 μg per pellet, 48 h
Description: Fertilised 3 day-old white Leghorn eggs (Spafas, Norwich, Conn.) were cracked, the embryos with intact yolks placed in 20×100 mm petri dishes and incubated for 3 days at 37° C. and 3% CO2 (Folkman, 1985). Methylcellulose (Fisher Scientific, Fair Lawn, N.J.) discs containing 5, 10 or 50 μg of either GSAA or GSAO were then applied to the CAM of individual embryos and incubated for 48 h at 37° C. and 3% CO2. The discs were made by desiccation of GSAA or GSAO in 10 μl of 0.45% methycellulose on teflon rods. The CAMs were observed using a stereomicroscope and scored for no obvious affect or inhibition of CAM angiogenesis as defined by avascular zones. On some occasions CAM blood vessels were injected with India ink and photographed.

BxPC-3 tumours = assay: Primary tumour growth assay; assay type: in vivo, SCID mice; settings: 10 mg/kg/day s.c., all experiments (BxPC-3, HT1080, LLC)
Description: (§1) Female 7 to 9 week old SCID or C57Bl6/J mice were used (Massachusetts General Hospital, Boston, Mass.). Mice were held in groups of 3 to 5 at a 12 hour day and night cycle and were given animal chow and water ad libidum. SCID or C57Bl6/J mice were anaesthetised by inhalation of isoflurane, the dorsal skin shaved and cleaned with ethanol, and a suspension of 2.5×10^6 BxPC-3, HT1080 or LLC cells in 0.2 mL of PBS, or saline for LLC cells, was injected S.C. in the proximal midline. LLC cells were prepared according to O'Reilly et al. (1997). Tumour volume was calculated using the relationship, a·b^2·0.52, where a is the longest and b the shortest diameter.

[8] = Tolerability in tumour-bearing mice; assay type: in vivo, SCID or C57Bl6/J mice
Description: as §1

Row | Structure (SMILES) | MPTP Swelling Rate Increase/GSAO* Mean (MPTP [3]) | Fold Increase (BAE cells [4]) | IC50 (BAE cells [4]; read-out: IC50 (μM)*) | also measured
1 | Nc1ncnc2c1ncn2[C@@H]1O[C@H](COP(=O)(O)OP(=O)(O)O)[C@@H](O)[C@H]1O [ADP] | – | – | – | blocking of the effect of GSAO on pore opening (MPTP [1]): blocked; blocking of the effect of o-GSAO on pore opening [2]: blocked
2 | CO[C@H](C/C=C\C=C\CC/C=C/C[C@H](C)/C=C/C(=C\C(=O)O)CC(=O)O)/C(C)=C\C=C(/C)C(=O)O [BKA, Bonkrekic acid] | – | – | – | blocking of the effect of GSAO on pore opening (MPTP [1]): blocked
3 | O=C(O)CCC(NC(=O)NC(CSCC(=O)Nc1ccc([As](O)O)cc1)C(=O)O)C(=O)O (stereo not drawn) [Compound 3, retro-HO-Cys-(CH2CONHC6H4-p-As{OH}2)-carbonyl-Glu-OH] | 2.4 | 0.07 | 122 µM | –
4 | N=C(N)NCCC[C@H](N)C(=O)NCC(=O)N[C@@H](CC(=O)O)C(=O)N[C@@H](CSCC(=O)Nc1ccc([As](O)O)cc1)C(=O)O [Compound 6, H-Arg-Gly-Asp-Cys(CH2CONHC6H4-p-As{OH}2)—OH] (H-RGDC(X2)-OH) | 4.5 | 0.45 | 18.2 µM | –
5 | NCC(=O)NCC(=O)NC(CSCC(=O)Nc1ccc([As](O)O)cc1)C(=O)O (stereo not drawn) [Compound 7, H-Gly-Gly-Cys(CH2CONHC6H4-p-As{OH}2)—OH] | 2.2 | 0.44 | – | IC50 (BAE cells [5]): 19 µM
6 | CC(C)C(N)C(=O)NC(C(=O)NC(CSCC(=O)Nc1ccc([As](O)O)cc1)C(=O)NCC(=O)O)C(C)O (stereo not drawn) [Compound 8, H-Val-Thr-Cys(CH2CONHC6H4-p-As{OH}2)-Gly-OH] (H-VTC(X2)G-OH; configuration not given here) | 2.1 | 0.95 | – | IC50 (BAE cells [5]): 8.8 µM
7 | NC(=O)CCC(NC(=O)C(Cc1ccccc1)NC(=O)C(Cc1ccc(O)cc1)NC(=O)C(N)CSCC(=O)Nc1ccc([As](O)O)cc1)C(=O)NC(CC(N)=O)C(=O)NC(CSCC(=O)Nc1ccc([As](O)O)cc1)C(=O)O (stereo not drawn) [Compound 9, H-Cys-(CH2CONHC6H4-p-As{OH}2)-Tyr-Phe-Gln-Asn-Cys-(CH2CONHC6H4-p-As{OH}2)—OH] (H-C(X2)YFQNC(X2)-OH; configuration not given here) | – | 0.64 | – | IC50 (BAE cells [4]; 72 h): 12.9 µM
8 | O=C(CSCCCS(=O)(=O)O)Nc1ccc([As](O)O)cc1 [Compound 10, 3-S—(CH2CONHC6H4-p-As{OH}2)-1-propanesulfonic acid] | 2.0 | 0.21 | 39 µM | –
9 | O=C(O)CCSCC(=O)Nc1ccc([As](O)O)cc1 [Compound 11, 3-S—(CH2CONHC6H4-p-As{OH}2)-1-propionic acid] | 1.3 | 0.05 | 170 µM | –
10 | O=C(O)CC(SCC(=O)Nc1ccc([As](O)O)cc1)C(=O)O (stereo not drawn) [Compound 13, 1-S—(CH2CONHC6H4-p-As{OH}2)-mercaptosuccinic acid] | 1.6 | 0.19 | 43.3 µM | –
11 | O=C(CS[C@@H]1O[C@H](CO)[C@@H](O)[C@H](O)[C@H]1O)Nc1ccc([As](O)O)cc1 [Compound 14, 1-S—(CH2CONHC6H4-p-As{OH}2)-β-D-glucose] | 1.1 | 0.08 | 106 µM | –
12 | O=C(O)Cn1nnnc1SCC(=O)Nc1ccc([As](O)O)cc1 [Compound 21, 5-S—(CH2CONHC6H4-p-As{OH}2)-1-tetrazolacetic acid] | 2.8 | 0.16 | – | IC50 (BAE cells [5]): 51.3 µM
13 | NCC(=O)NCC(=O)N[C@@H](CSCC(=O)Nc1ccccc1[As](O)O)C(=O)O [Compound 22, H-Gly-Gly-Cys(CH2CONHC6H4-o-As{OH}2)—OH] | 6.9 | 46.9 | 0.18 µM | times more active than the corresponding p-arsenoxide analogue (BAE cells [4]): approximately 106 times
14 | CC(C)C(N)C(=O)NC(C(=O)NC(CSCC(=O)Nc1ccccc1[As](O)O)C(=O)NCC(=O)O)C(C)O (stereo not drawn) [Compound 23, H-Val-Thr-Cys(CH2CONHC6H4-o-As{OH}2)-Gly-OH] (H-VTC(X1)G-OH; configuration not given here) | 5.4 | 19.8 | 0.42 µM | times more active than the corresponding p-arsenoxide analogue (BAE cells [4]): approximately 20 times
15 | O=C(O)CN(CCOCCOCCN(CC(=O)O)CC(=O)O)CC(=O)O [EGTA, ethylene glycol-bis(beta-aminoethyl ether)-N,N,N′N′-tetraacetic acid] | – | – | – | blocking of the effect of GSAO on pore opening (MPTP [1]): blocked; blocking of GSAO-dependent swelling [2]: blocked
16 | N[C@@H](CCC(=O)N[C@@H](CSCC(=O)Nc1ccc([As](=O)(O)O)cc1)C(=O)NCC(=O)O)C(=O)O [GSAA, 4-(N—((S-glutathionyl)acetyl)amino)-benzenearsonic acid, reference compound] | – | – | – | swelling of isolated rat liver mitochondria (MPTP [1]): without effect; effect on the viability of proliferating BAE cells (BAE cells [6]): no significant effect; effect on O2^− or H2O2 levels (BAE cells [7]): no effect; inhibition of CAM angiogenesis (avascular zones) (CAM angiogenesis): did not inhibit CAM angiogenesis; also recorded: no affects; inhibition of the rate of tumour growth compared to vehicle alone (BxPC-3 tumours): < 20%; adverse affects of administration ([8]; 10 mg/kg/day s.c.): no apparent adverse affects; morphological changes in the heart, lungs, liver, kidneys, and spleen ([8]; 10 mg/kg/day s.c.): no morphological changes; average mice weights over the course of the experiments ([8]; GSAO versus GSAA treatment groups): the same
17 | N[C@@H](CCC(=O)N[C@@H](CSCC(=O)Nc1ccc(C(=O)O)cc1)C(=O)NCC(=O)O)C(=O)O [GSCA, 4-(N—((S-glutathionyl)acetyl)amino)benzoic acid] | – | – | – | swelling of isolated rat liver mitochondria (MPTP [1]): without effect; effect on the viability of proliferating BAE cells (BAE cells [6]; concentrations up to 1.0 mM): no significant effect
18 | [Mg+2] [Mg^2+] | – | – | – | blocking of the effect of GSAO on pore opening (MPTP [1]): blocked; blocking of GSAO-dependent swelling ([2]; FIG. 18 as printed): blocked
